The subject of one data set is AsPC-1. The experiment in a line: MTT cytotoxicity assay, AsPC-1. Format: cell-based. To be noted: Homo sapiens, ASPC1, 72 h, 0.05–50 µM. On the procedure:
(§1) Cytotoxicity assays were performed by using the MTT reduction method as described previously. Briefly, cancer cell lines were plated in flat-bottom 96-well plates at a cell concentration of 5 × 10^3 cells/well for the fastest growing lines, such as HEK293 and HT29 cells and 1 × 10^4 cells/well for more slowly growing lines, such as HCT116, H1975, BxPC-3, AsPC-1, B16-F10 and DAOY. Then, cells were incubated with the synthesised compounds at different concentrations (from 0.05 to 50 µM) in 200 µL with 10% FBS in RPMI 1640 or DMEM F12 culture medium at 37 °C for 72 h. Later, 10 µL of MTT were added at a final concentration of 0.5 mg/mL, incubated at 37 °C for 4 h, and then solubilised with 10% sodium dodecyl sulphate (SDS) in 0.1 mM HCl and incubated overnight at 37 °C. Formazan formation was measured at 570 nm in a multiwell plate reader (Cytation 5, Biotek Instruments, Winooski, VT, USA). Three independent biological replicates were performed.
(In general: Tetrazolium assays rely on reduction of a dye to a coloured formazan, in cell work by metabolically active cells.)

Another data set has as its system BxPC-3. The experiment in a line: MTT cytotoxicity assay, BxPC-3. As to conditions: Homo sapiens, 72 h, 0.05–50 µM. Format: cell-based. On the procedure: as §1
Data set [1] can be described thus: MTT cytotoxicity assay, HEK293 control cells.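 Also: Read-out is formazan absorbance at 570 nm from MTT reduction in 96-well plates, with three independent biological replicates.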 Format: cell-based, human. As to conditions: human, HEK293 cells; 50 µM, 72 h, MTT.
The next data set deals with HEK293. The experiment in a line: MTT cytotoxicity assay, HEK293 control cells.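 Also: Read-out is formazan absorbance at 570 nm from MTT reduction in 96-well plates, with three independent biological replicates.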 Format: cell-based, human. As to conditions: Homo sapiens, HEK293; MTT, 72 h, non-cancer cell line.
For another data set, the system named is Daoy. Description: MTT cytotoxicity assay, Daoy.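 As to all read-outs here: viability read as formazan absorbance at 570 nm after MTT reduction, three independent biological replicates.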 The data set is classed as cell-based, human. To be noted: Homo sapiens, Daoy, 72 h; for IC50: 0.05–50 µM; for cytotoxicity at 50 µM: read-out: % Cytotoxicity (50 µM) DAOY.
The next data set deals with HT29. The experiment in a line: MTT cytotoxicity assay, HT29. Format: cell-based. As to conditions: Homo sapiens; for cytotoxicity at 50 µM: read-out: % Cytotoxicity (50 µM) HT29; for IC50: 0.05–50 µM. As for the experimental part:
as §1

The test system of the next data set is H1975. Description: MTT cytotoxicity assay, H1975. The data set is classed as cell-based. To be noted: Homo sapiens; for cytotoxicity at 50 µM: read-out: % Cytotoxicity (50 µM) H1975; for IC50: 0.05–50 µM. As for the experimental part:
as §1

A further data set relates to HCT116. Description: MTT cytotoxicity assay, HCT116. As to conditions: Homo sapiens; for cytotoxicity at 50 µM: read-out: % Cytotoxicity (50 µM) HCT116; for IC50: 0.05–50 µM. Format: cell-based. As for the experimental part: as §1
The subject of the next data set is tumour cell lines. The experiment in a line: MTT cytotoxicity assay, summary over the tumour cell line panel. Format: cell-based, human. As to conditions: 50 µM, 72 h, MTT, tumour cell lines tested. On the procedure: as §1
In a further data set the target is GLI-luciferase reporter. Also on record: method as in PMID 24923765. As to conditions: cited from earlier work.

Read-outs that look alike come from different tables or passages of the source.

The term IC50 denotes the midpoint of a concentration-inhibition curve. Higher therefore signals weaker potency in that assay. Usually melting point stands for the temperature, or range, at which the solid turns liquid. For the compound `CCCCn1cnc2c(-c3ccc(OC(F)(F)F)cc3)nc(NC3CCCC3)nc21` [Compound 4a, 9-Butyl-N-cyclopentyl-6-(4-(trifluoromethoxy)phenyl)-9H-purin-2-amine], the melting point lay in the range of 93 to 95 °C. Besides, inhibition in the data set with AsPC-1 was half-maximal at 20.1 ± 0.3 µM (IC50). For the same compound, in the data set with BxPC-3, the IC50 is over 50 µM. The cytotoxicity at 72 h, 50 µM in [1] was under 50%. The compound further registered an IC50 in the data set on HEK293 of over 50 µM. Besides, the concentration for half-maximal inhibition (IC50) in the data set on Daoy (MTT) came out at 18 ± 0.2 µM. In addition, in the data set with Daoy (50 µM, MTT), the cytotoxicity at 50 µM was determined as 82 ± 6.2%. The cytotoxicity at 50 µM with HT29 (HT-29, 50 µM, 72 h, MTT) was under 50%. For the same compound, in the data set on HT29 (HT-29, MTT, 72 h), the IC50 is over 50 µM. In addition, the cytotoxicity at 50 µM in the data set with H1975 (NCI-H1975, 50 µM, 72 h, MTT) was determined as 66 ± 0.9%. Further, half-maximal inhibition with H1975 (NCI-H1975, MTT, 72 h) (IC50) required 34 ± 0.9 µM. Also, the cytotoxicity at 50 µM in the data set on HCT116 (HCT-116, 50 µM, 72 h, MTT) came to 68 ± 0.3%. This compound also had an IC50 in the data set on HCT116 (HCT-116, MTT, 72 h) of 32 ± 0.3 µM.

With `CCCCCCn1cnc2c(-c3ccc(OC(F)(F)F)cc3)nc(NC3CCCC3)nc21` [Compound 4c, N-cyclopentyl-9-hexyl-6-(4-(trifluoromethoxy)phenyl)-9H-purin-2-amine], the melting point fell in the range of 58 to 60 °C. The IC50 in the data set on AsPC-1 was over 50 µM. This compound also gave an IC50 in the data set with BxPC-3 of over 50 µM. The compound further displayed a cytotoxicity at 72 h, 50 µM in data set [1] of under 50%. The compound further came in with a concentration for half-maximal inhibition (IC50) in the data set with HEK293 of over 50 µM. For the same compound, in the data set with Daoy (MTT), the half-maximal inhibitory concentration (IC50) worked out at 31 ± 0.9 µM. For the same compound, the cytotoxicity at 50 µM in the data set with Daoy came out at 69 ± 0.9%. The cytotoxicity at 50 µM with HT29 (HT-29, 72 h) was under 50%. The compound further displayed an IC50 in the data set on HT29 (HT-29, MTT, 72 h) of over 50 µM. The cytotoxicity at 50 µM in the data set on H1975 (NCI-H1975, 72 h) was determined as 19 ± 0.8%. Moreover, in the data set with H1975 (NCI-H1975, MTT, 72 h), the IC50 stood at 19 ± 0.8 µM. In the data set on HCT116 (HCT-116, 72 h), the cytotoxicity at 50 µM is under 50%. Further, the half-inhibitory concentration (IC50) in the data set with HCT116 (HCT-116, MTT, 72 h) was over 50 µM.

Turning to `CCCCCn1cnc2c(-c3ccc(OC(F)(F)F)cc3)nc(NC3CCCCC3)nc21` [Compound 4e, N-cyclohexyl-9-pentyl-6-(4-(trifluoromethoxy)phenyl)-9H-purin-2-amine], the melting point fell in the range of 108 to 110 °C. The compound also gave a 50% inhibitory concentration (IC50) in the data set with AsPC-1 of over 50 µM. The compound further came in with an IC50 in the data set on BxPC-3 of over 50 µM. The same compound returned a cytotoxicity at 72 h, 50 µM in data set [1] of under 50%. In the data set with HEK293, this compound came in with an IC50 of over 50 µM. This compound displayed an IC50 in the data set on Daoy (MTT) of over 50 µM. Also, the cytotoxicity at 50 µM in the data set with Daoy was under 50%. For the same compound, in the data set with HT29 (HT-29, 72 h), the cytotoxicity at 50 µM was under 50%. In the data set with HT29 (HT-29, MTT, 72 h), this compound gave a half-maximal inhibitory concentration (IC50) of over 50 µM. Further, the cytotoxicity at 50 µM in the data set with H1975 (NCI-H1975, 72 h) was under 50%. In the data set with H1975 (NCI-H1975, MTT, 72 h), the midpoint of inhibition, the IC50, lay at 23 ± 0.3 µM. Further, in the data set with HCT116 (HCT-116, 72 h), the cytotoxicity at 50 µM was under 50%. The compound also returned a half-maximal inhibitory concentration (IC50) with HCT116 (HCT-116, MTT, 72 h) of over 50 µM.

`CCCCCn1cnc2c(-c3ccc(OC(F)(F)F)cc3)nc(NCC3CCCCC3)nc21` [Compound 4h, N-(cyclohexylmethyl)-9-pentyl-6-(4-(trifluoromethoxy)phenyl)-9H-purin-2-amine] yielded a melting point of 78 to 79 °C. This compound registered an IC50 in the data set on AsPC-1 of over 50 µM. In the data set on BxPC-3, this compound registered an IC50 of over 50 µM. The same compound registered a cytotoxicity at 72 h, 50 µM in data set [1] of under 50%. The compound also returned an IC50 in the data set with HEK293 of over 50 µM. Also, in the data set on Daoy (MTT), the half-inhibitory concentration (IC50) was 19 ± 1.1 µM. In addition, in the data set on Daoy, the cytotoxicity at 50 µM came out at 81 ± 1.1%. For the same compound, the cytotoxicity at 50 µM with HT29 (HT-29, 72 h) is under 50%. For the same compound, the half-inhibitory concentration (IC50) in the data set on HT29 (HT-29, MTT, 72 h) was over 50 µM. Also, the cytotoxicity at 50 µM in the data set with H1975 (NCI-H1975, 72 h) was 61 ± 1.2%. The compound further displayed an IC50 in the data set on H1975 (NCI-H1975, MTT, 72 h) of 39 ± 1.2 µM. Further, the cytotoxicity at 50 µM in the data set with HCT116 (HCT-116, 72 h) was under 50%. The compound further had a half-maximal inhibitory concentration (IC50) in the data set with HCT116 (HCT-116, MTT, 72 h) of over 50 µM.

For `CCCCCn1cnc2c(-c3ccc(OC(F)(F)F)cc3)nc(N3CCN(c4ccncc4)CC3)nc21` [Compound 4r, 9-Pentyl-2-(4-(pyridin-4-yl)piperazin-1-yl)-6-(4-(trifluoromethoxy)phenyl)-9H-purine], the melting point was in the range of 109 to 110 °C. This compound also had an IC50 in the data set on AsPC-1 of over 50 µM. Also, the “cytotoxicity in tumour cell lines” value with tumour cell lines is given as “more than 80%”. The same compound yielded a concentration for half-maximal inhibition (IC50) in the data set on BxPC-3 of over 50 µM. The compound further showed a cytotoxicity at 72 h, 50 µM in data set [1] of under 50%. In the data set with HEK293, this compound had a half-inhibitory concentration (IC50) of over 50 µM. For the same compound, in the data set with Daoy (50 µM, MTT), the cytotoxicity at 50 µM is 92 ± 0.4%. In addition, in the data set on HT29 (HT-29, 50 µM, 72 h, MTT), the cytotoxicity at 50 µM is under 50%. The compound also yielded an IC50 in the data set on HT29 (HT-29, MTT, 72 h) of over 50 µM. In the data set with H1975 (NCI-H1975, 50 µM, 72 h, MTT), the cytotoxicity at 50 µM was under 50%. Inhibition in the data set with H1975 (NCI-H1975, MTT, 72 h) was half-maximal at 7.7 ± 0.4 µM (IC50). Moreover, the cytotoxicity at 50 µM in the data set on HCT116 (HCT-116, 50 µM, 72 h, MTT) is 81 ± 0.8%. In addition, the IC50 with HCT116 (HCT-116, MTT, 72 h) stood at 19 ± 0.8 µM.

In the case of `Cc1cccc(C)c1NC(=O)c1ccc(Nc2nc(-c3ccc(OC(F)(F)F)cc3)c3ncn(C)c3n2)cc1` [III], the “IC50 in GLI-luciferase reporter assays” value on GLI-luciferase reporter is given as “nanomolar range”.

As for `Cc1ccc(CN2CCOCC2)cc1NC(=O)c1ccc(Nc2nc(-c3ccc(OC(F)(F)F)cc3)c3ncn(C)c3n2)cc1` [IV], on GLI-luciferase reporter, the “IC50 in GLI-luciferase reporter assays” value is “nanomolar range”.

The values are drawn from publication PMC8395040 (International Journal of Molecular Sciences, 2021).
